In test [1] the target is T1, Neuronal acetylcholine receptor; alpha4/beta2 (Rattus norvegicus, UniProt P09483+P12390). Put plainly: In vitro binding affinity for Nicotinic acetylcholine receptor alpha4-beta2 in rat cerebral cortical membrane using [3H]cytisine as radioligand. In kind it is cell membranes.
The target of test [2] is T1, Neuronal acetylcholine receptor; alpha4/beta2. Nature of the test: In vitro binding affinity for Nicotinic acetylcholine receptor alpha4-beta2 (alpha4 beta-2 subtype of nAChRs) in rat cerebral cortical membrane using [3H]-cytisine as radioligand. The test is classed as cell membranes.

pIC50: −log10 of the molar value.

T1 sequence (P09483 whole entry): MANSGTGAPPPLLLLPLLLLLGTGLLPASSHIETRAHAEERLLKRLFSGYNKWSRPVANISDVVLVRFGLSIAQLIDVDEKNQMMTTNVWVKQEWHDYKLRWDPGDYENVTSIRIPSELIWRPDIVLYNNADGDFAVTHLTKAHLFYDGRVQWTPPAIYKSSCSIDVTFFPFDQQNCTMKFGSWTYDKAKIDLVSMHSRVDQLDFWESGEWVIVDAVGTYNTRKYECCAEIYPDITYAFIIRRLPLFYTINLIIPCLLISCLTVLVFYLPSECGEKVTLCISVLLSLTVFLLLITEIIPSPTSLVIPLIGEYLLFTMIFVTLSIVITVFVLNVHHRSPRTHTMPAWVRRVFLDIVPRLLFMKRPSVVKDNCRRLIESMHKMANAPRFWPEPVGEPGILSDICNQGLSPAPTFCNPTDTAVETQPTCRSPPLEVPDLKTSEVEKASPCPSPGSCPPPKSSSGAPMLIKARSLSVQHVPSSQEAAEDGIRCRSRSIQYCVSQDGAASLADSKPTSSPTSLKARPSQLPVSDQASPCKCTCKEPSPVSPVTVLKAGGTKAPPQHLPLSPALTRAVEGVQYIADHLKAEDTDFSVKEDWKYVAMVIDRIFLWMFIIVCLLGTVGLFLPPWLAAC
T1 sequence (P12390 whole entry): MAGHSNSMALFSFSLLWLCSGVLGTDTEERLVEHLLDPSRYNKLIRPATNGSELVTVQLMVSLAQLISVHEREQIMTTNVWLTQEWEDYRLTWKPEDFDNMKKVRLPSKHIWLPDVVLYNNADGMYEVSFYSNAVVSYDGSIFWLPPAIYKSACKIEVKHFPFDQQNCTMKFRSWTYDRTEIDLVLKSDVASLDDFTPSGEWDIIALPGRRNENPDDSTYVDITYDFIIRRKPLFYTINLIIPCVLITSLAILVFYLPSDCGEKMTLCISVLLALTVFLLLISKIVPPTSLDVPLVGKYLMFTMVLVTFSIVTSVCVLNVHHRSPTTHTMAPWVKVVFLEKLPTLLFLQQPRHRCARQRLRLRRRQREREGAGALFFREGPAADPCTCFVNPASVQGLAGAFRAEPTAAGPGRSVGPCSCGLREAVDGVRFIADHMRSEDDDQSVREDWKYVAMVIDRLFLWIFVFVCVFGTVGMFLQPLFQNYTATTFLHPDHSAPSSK

On to `c1cncc(OC2CCNC2)c1` (configuration not stated), for which the pIC50 in test [1] (read-out: IC50) was 7.00.
Still for that read-out and setting: the value for `c1ccc(Sc2cncc(N3CCCNCC3)c2)cc1` was 8.40.
For `c1cncc(OC[C@@H]2CCN2)c1`, the pIC50 in test [1] is 8.82.
Turning to `C1=C(c2cccnc2)CC2CCC1N2` (configuration not stated), in test [1] (read-out: IC50), the pIC50 was 8.17.
Same read-out and setting: under `c1ccc2nc(-c3cncc(N4CCCNCC4)c3)ccc2c1` stands 8.18.
Take `c1cncc(-c2cncc(N3CCCNCC3)c2)c1`: the pIC50 in test [1] (read-out: IC50) is 8.55.
As for `COc1cc(N2CCCNCC2)cnc1OC`, the pIC50 in test [1] (read-out: IC50) is 6.77.
On the same count and under the same terms, the value for `NC(=O)c1cncc(N2CCCNCC2)c1` was 7.70.
In test [2], `COc1cc(N2CCCNCC2)cnc1Cl` showed a pIC50 of 9.17.
Regarding `COc1ccc(N2CCCNCC2)cn1`, in test [1] (read-out: IC50), the pIC50 was 6.77.
Still for that read-out and setting: the value for `CCSc1ccc(N2CCCNCC2)cn1` was 6.77.
In turn, `C=COc1cncc(N2CCCNCC2)c1` showed a pIC50 in test [2] of 8.30.
In the case of `Nc1cccc(-c2cncc(N3CCCNCC3)c2)c1`, the pIC50 in test [1] (read-out: IC50) was 8.40.
Take `COc1cncc(N2CCCNCC2)c1`: in test [1] (read-out: IC50), the negative logarithm of the IC50 (pIC50) was 8.72.
Same read-out and setting: the value for `Oc1cncc(N2CCCNCC2)c1` was 8.62; that for `COCCOc1cncc(N2CCCNCC2)c1` was 8.62.
Turning to `CCOc1cc(N2CCCNCC2)cnc1Br`, the pIC50 in test [2] is 9.06.
As for `C1=CC(CSc2cncc(N3CCCNCC3)c2)C=C1`, in test [1] (read-out: IC50), the pIC50 is 8.10.
Still for that read-out and setting: the value for `OCCOc1cncc(N2CCCNCC2)c1` was 8.74; that for `CC(C)COc1cncc(N2CCCNCC2)c1` was 8.66.
On the same count and under the same terms, the value for `Clc1cncc(OC2CCNC2)c1` (configuration not stated) was 6.66; that for `c1cncc(OC2CCCNC2)c1` (configuration not stated) was 6.72.

A word on the pIC50: it is the negative decadic logarithm of the IC50, by convention in mol/L.

(Values after ChEMBL document CHEMBL1133731, “Novel potent ligands for the central nicotinic acetylcholine receptor: synthesis, receptor binding, and 3D-QSAR analysis” (J Med Chem, 2000).)
